Test results published in patent publication US20040180931A1, “Methods for treating Parkinson's disease” (priority 2000, published 2004).

Key:
Format in all cases: in vivo, humans
[1] = tested on: patients with Parkinson's disease who were suffering from dementia; experiment: CIBIC+ (clinician's interview-based impression of change) in randomized, placebo-controlled, double-blind crossover study
Description: (§1) A randomized, placebo-controlled, double-blind crossover study was conducted with fourteen patients with Parkinson's disease (13 men, 1 woman; mean age 78 (SD 3.6) years; mean duration of illness 11.4 (SD 4.9) years) who had developed cognitive impairments (mean Mini-Mental State Examination (MMSE) score 20.7 (SD 3.3)) 8.6 (SD 5.8) years after the onset of parkinsonism. […] At weeks 6 and 10 the patients completed a battery of cognitive tests. Cognitive impairments were measured using the MMSE and the CIBIC, a 7-point scale of the clinician's interview-based impression of change based upon information scored independently of the MMSE. Parkinsonism was assessed using the Unified Parkinson's Disease Rating Scale (UPDRS).

[2] = tested on: patients with Parkinson's disease who were suffering from dementia; experiment: Mini-Mental State Examination (MMSE) in randomized, placebo-controlled, double-blind crossover study; settings: 5 mg or 10 mg donepezil, 10 weeks, start of treatment to week 10
Description: as §1

[3] = tested on: patients with Parkinson's disease and mild or moderate dementia; experiment: Overall efficacy / cognitive function in crossover study
Description: as §1

## COc1cc2c(cc1OC)C(=O)C(CC1CCN(Cc3ccccc3)CC1)C2 (stereo not drawn) [donepezil, 1-benzyl-4-((5,6-dimethoxy-1-indanon)-2-yl)methylpiperidine]
[1]; 5 mg or 10 mg donepezil, week 10, 7-point scale
  mean CIBIC+ score at week 10: 3.3
[1]; 10 weeks of treatment
  CIBIC+ response rate (improvement, CIBIC+ score of 3 or lower): 42%
  number of patients with improvement (CIBIC+ score of 3 or lower): 5 patients
[2]
  mean MMSE score difference from baseline to week 10: 2.1 points
[3]; in vivo
  all efficacy measures versus placebo: numerical benefit
[3]; treated for 10 weeks
  cognitive function: improvement
